Assay results published in patent publication US8278343B2, “Pyrrolidines” (Pfizer Inc., priority 2008, dated 2012).

What follows are molecules tested against T1, recombinant human EP-2 receptor (Homo sapiens, UniProt P43116) (assay: In vitro antagonist potency against recombinant human prostaglandin E2 (EP-2) receptor in CHO cells (cAMP, Protocol 1)). Conditions: CHO cells expressing recombinant human EP-2 receptor, stimulated with 5 nM PGE2; cAMP readout; Ki by Cheng-Prusoff equation; read-out: EP2 Ki.
T1 construct: stably transfected with full length cDNA encoding human Prostaglandin E2; expressed in transfected cells
T1 sequence (P43116 whole entry): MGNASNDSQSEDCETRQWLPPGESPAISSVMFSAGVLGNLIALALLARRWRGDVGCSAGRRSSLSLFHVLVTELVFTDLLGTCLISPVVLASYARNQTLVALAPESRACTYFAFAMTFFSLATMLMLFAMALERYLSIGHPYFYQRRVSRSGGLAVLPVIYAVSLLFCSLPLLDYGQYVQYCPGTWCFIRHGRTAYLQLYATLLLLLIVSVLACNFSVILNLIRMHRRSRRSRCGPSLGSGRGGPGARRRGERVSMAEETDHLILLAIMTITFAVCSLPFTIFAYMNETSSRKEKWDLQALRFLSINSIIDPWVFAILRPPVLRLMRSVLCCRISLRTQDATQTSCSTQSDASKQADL
Assay type: cell-based
Method: 1.0 Measurement of In Vitro Antagonist Potency (IC50) of Compounds Against Recombinant Human Prostaglandin E2 Receptor in CHO Cells
The prostaglandin E2 (EP-2) receptor is Gs coupled and agonism of the receptor by PGE2 results in activation of intracellular adenylate cyclase enzymes that synthesise the second messenger signalling molecule, adenosine 3′,5′-cyclic monophosphate (cAMP). CHO cells expressing the recombinant human EP-2 receptor are stimulated with PGE2 (5 nM) equivalent to approximately […] values to give the maximal cAMP signal. Decreases in cAMP levels following treatment of stimulated recombinant EP-2 cells with potential antagonist compounds were measured and potency (IC50) calculated as follows.
A Chinese hamster ovary (CHO) cell line stably transfected with full length cDNA encoding human Prostaglandin E2 was established using standard molecular biology methods. Test compounds were dissolved in dimethyl sulphoxide (DMSO) at 4 mM. 11 point half log unit increment dilution series of test compound were prepared in DMSO then diluted 1 in 40 in a buffer comprised of phosphate buffered saline (PBS) and 0.05% pluronic F-127 surfactant. Freshly cultured cells at 80-90% confluence were harvested and re-suspended in 90% growth media/10% DMSO. The cells were frozen using a planar freezer and stored in frozen aliquots in cryovials in liquid nitrogen until the day of the experiment. A vial of cells was defrosted in a 37° C. water bath for 2 min, then transferred to 10 ml of Dulbecco's Modified Eagle's Medium (DMEM). The cells were then centrifuged for 5 min at 1000 g and the pellet re-suspended at 1,000,000 cells/ml in DMEM. 5,000 cells (5 ul) were added to 5 ul of the compound dilution series in a 384 well assay plate and pre-incubated for 30 min at 37° C. 5 ul of agonist (15 nM PGE2 in PBS to give 5 nM FAC) was added and plates further incubated for 90 min at 37° C. The relative cAMP concentration in each well was then measured using a β-galactosidase enzyme fragment complementation method purchased in kit form as the Discoverx cAMP II kit from GE Healthcare, UK. […] Sigmoidal curves were fitted to plots of log10 inhibitor concentration vs percent effect. IC50 estimates were determined as the concentration of test compound giving an effect half way between the bottom and top asymptotes of the sigmoidal dose response curve. Each experiment included an IC50 determination for the literature compound as a standard to track assay consistency and allow fair comparison between values obtained in different experiments. The EC50 of PGE2 is used in combination with the ligand concentration in the assay to determine Ki values for antagonist dose responses using the Cheng-Prusoff equation. Consequently an agonist dose response curve is carried out for each experiment using the same incubation as the antagonist plate.

| Ki | SMILES |
| --- | --- |
| 0.633 nM | COc1ccc(C(=O)N2CCC(COc3ccc(-c4ccc(C#N)cc4)cc3)(C(=O)O)C2)cc1 (single isomer, unassigned) [Example 1, 3-(4′-Cyano-biphenyl-4-yloxymethyl)-1-(4-methoxy-benzoyl)-pyrrolidine-3-carboxylic acid] |
| 0.344 nM | N#Cc1ccc(-c2ccc(OCC3(C(=O)O)CCN(C(=O)c4ccc(F)cc4)C3)cc2)cc1 (single isomer, unassigned) [Example 2, 3-(4′-Cyano-biphenyl-4-yloxymethyl)-1-(4-fluoro-benzoyl)-pyrrolidine-3-carboxylic acid] |
| 1.64 nM | O=C(c1ccc(F)cc1)N1CCC(COc2cnc(-c3ccc(Cl)cc3)nc2)(C(=O)O)C1 (single isomer, unassigned) [Example 5] |
| 102 nM | O=C(c1ccc(F)cc1)N1CCC(COc2cnc(-c3ccc(Cl)cc3)nc2)(C(=O)O)C1 (single isomer, unassigned) [Example 6] |
| 2.97 nM | O=C(c1ccc(F)cc1)N1CCC(COc2ccc(-c3ccc(Cl)cc3)nc2)(C(=O)O)C1 (single isomer, unassigned) [Example 7] |
| 0.741 nM | O=C(c1ccc(F)cc1)N1CCC(COc2cnc(-c3ccc(Cl)cc3)cn2)(C(=O)O)C1 (single isomer, unassigned) [Example 10] |
| 28.9 nM | O=C(c1ccc(F)cc1)N1CCC(COc2cnc(-c3ccc(Cl)cc3)cn2)(C(=O)O)C1 (single isomer, unassigned) [Example 11] |
| 4.82 nM | O=C(c1ccc(F)cc1)N1CCC(COc2ccc(-c3ccc(Cl)cn3)cc2)(C(=O)O)C1 (single isomer, unassigned) [Example 12] |
| 333 nM | O=C(c1ccc(F)cc1)N1CCC(COc2ccc(-c3ccc(Cl)cn3)cc2)(C(=O)O)C1 (single isomer, unassigned) [Example 13] |
| 522 nM | O=C(c1ccc(F)cc1)N1CCC(COc2cccc(F)c2F)(C(=O)O)C1 (single isomer, unassigned) [Example 14] |
| 84.7 nM | O=C(c1ccc(F)cc1)N1CCC(COc2ccc(-c3ncc(Cl)cn3)cc2)(C(=O)O)C1 (single isomer, unassigned) [Example 15] |
| 0.692 nM | O=C(c1ccc(F)cc1)N1CCC(COc2ccc(-c3ncc(Cl)cn3)cc2)(C(=O)O)C1 (single isomer, unassigned) [Example 16] |
| 2.01 nM | O=C(c1ccc(F)cc1)N1CCC(COc2ccc(-c3ccc(F)cc3)cc2)(C(=O)O)C1 (single isomer, unassigned) [Example 17] |
| 17.2 nM | O=C(c1ccc(F)cc1)N1CCC(COc2ccc(-c3ccc(F)cc3)cc2)(C(=O)O)C1 (single isomer, unassigned) [Example 18] |
| 192 nM | O=C(c1ccc(F)cc1)N1CCC(COc2ccc(F)c(Cl)c2)(C(=O)O)C1 (single isomer, unassigned) [Example 25] |
| 0.0376 nM | N#Cc1ccc(-c2ccc(OCC3(C(=O)O)CCN(C(=O)c4ccc(Cl)cc4)C3)cc2)cc1 (single isomer, unassigned) [Example 26] |
| 4.34 nM | N#Cc1ccc(-c2ccc(OCC3(C(=O)O)CCN(C(=O)c4ccc(Cl)cc4)C3)cc2)cc1 (single isomer, unassigned) [Example 27] |
| 0.461 nM | O=C(c1ccc(Cl)cc1)N1CCC(COc2ccc(-c3ncc(Cl)cn3)cc2)(C(=O)O)C1 (single isomer, unassigned) [Example 30] |
| 282 nM | O=C(c1ccc(Cl)cc1)N1CCC(COc2ccc(-c3ncc(Cl)cn3)cc2)(C(=O)O)C1 (single isomer, unassigned) [Example 31] |
| 0.735 nM | O=C(c1ccc(Cl)cc1)N1CCC(COc2ccc(-c3ccc(Cl)cc3)nc2)(C(=O)O)C1 (single isomer, unassigned) [Example 32] |
| 141 nM | O=C(c1ccc(Cl)cc1)N1CCC(COc2ccc(-c3ccc(Cl)cc3)nc2)(C(=O)O)C1 (single isomer, unassigned) [Example 33] |
| 0.743 nM | O=C(c1ccc(Cl)cc1)N1CCC(COc2cnc(-c3ccc(Cl)cc3)cn2)(C(=O)O)C1 (single isomer, unassigned) [Example 34] |
| 105 nM | O=C(c1ccc(Cl)cc1)N1CCC(COc2cnc(-c3ccc(Cl)cc3)cn2)(C(=O)O)C1 (single isomer, unassigned) [Example 35] |
| 1.16 nM | O=C(c1ccc(Cl)cc1)N1CCC(COc2ccc(-c3ccc(F)cc3)cc2)(C(=O)O)C1 (single isomer, unassigned) [Example 36] |

| Ki | SMILES |
| --- | --- |
| 30.3 nM | O=C(c1ccc(Cl)cc1)N1CCC(COc2ccc(-c3ccc(F)cc3)cc2)(C(=O)O)C1 (single isomer, unassigned) [Example 37] |
| 3.08 nM | COc1ccc(C(=O)N2CCC(COc3cnc(-c4ccc(Cl)cc4)cn3)(C(=O)O)C2)cc1 (single isomer, unassigned) [Example 38] |
| 48.1 nM | COc1ccc(C(=O)N2CCC(COc3cnc(-c4ccc(Cl)cc4)cn3)(C(=O)O)C2)cc1 (single isomer, unassigned) [Example 39] |
| 2.36 nM | COc1ccc(C(=O)N2CCC(COc3ccc(-c4ccc(F)cc4)cc3)(C(=O)O)C2)cc1 (single isomer, unassigned) [Example 40] |
| 66.9 nM | COc1ccc(C(=O)N2CCC(COc3ccc(-c4ccc(F)cc4)cc3)(C(=O)O)C2)cc1 (single isomer, unassigned) [Example 41] |
| 2.93 nM | COc1ccc(C(=O)N2CCC(COc3ccc(-c4ncc(Cl)cn4)cc3)(C(=O)O)C2)cc1 (single isomer, unassigned) [Example 42] |
| 145 nM | COc1ccc(C(=O)N2CCC(COc3ccc(-c4ncc(Cl)cn4)cc3)(C(=O)O)C2)cc1 (single isomer, unassigned) [Example 43] |
| 3.83 nM | COc1ccc(C(=O)N2CCC(COc3ccc(-c4ccc(Cl)cc4)nc3)(C(=O)O)C2)cc1 (single isomer, unassigned) [Example 44] |
| 170 nM | COc1ccc(C(=O)N2CCC(COc3ccc(-c4ccc(Cl)cc4)nc3)(C(=O)O)C2)cc1 (single isomer, unassigned) [Example 45] |
| 23.7 nM | COc1ccc(C(=O)N2CCC(COc3ccc(-c4ccc(Cl)cn4)cc3)(C(=O)O)C2)cc1 (single isomer, unassigned) [Example 46] |
| 226 nM | COc1ccc(C(=O)N2CCC(COc3ccc(-c4ccc(Cl)cn4)cc3)(C(=O)O)C2)cc1 (single isomer, unassigned) [Example 47] |
| 124 nM | COc1ccc(C(=O)N2CCC(COc3cnc(-c4ccc(Cl)cc4)nc3)(C(=O)O)C2)cc1 (single isomer, unassigned) [Example 49] |
| 1.88 nM | COc1ccc(C(=O)N2CCC(COc3cnc(-c4ccc(Cl)cc4)nc3)(C(=O)O)C2)cc1 (single isomer, unassigned) [Example 50] |
| 19.3 nM | CCOc1ccccc1C(=O)N1CCC(COc2cnc(-c3ccc(Cl)cc3)cn2)(C(=O)O)C1 (single isomer, unassigned) [Example 51] |
| 134 nM | CCOc1ccccc1C(=O)N1CCC(COc2cnc(-c3ccc(Cl)cc3)cn2)(C(=O)O)C1 (single isomer, unassigned) [Example 52] |
| 17.5 nM | CCOc1ccccc1C(=O)N1CCC(COc2ccc(-c3ccc(F)cc3)cc2)(C(=O)O)C1 (single isomer, unassigned) [Example 53] |
| 389 nM | CCOc1ccccc1C(=O)N1CCC(COc2ccc(-c3ccc(F)cc3)cc2)(C(=O)O)C1 (single isomer, unassigned) [Example 54] |
| 28.9 nM | CCOc1ccccc1C(=O)N1CCC(COc2ccc(-c3ncc(Cl)cn3)cc2)(C(=O)O)C1 (single isomer, unassigned) [Example 55] |
| 466 nM | CCOc1ccccc1C(=O)N1CCC(COc2ccc(-c3ncc(Cl)cn3)cc2)(C(=O)O)C1 (single isomer, unassigned) [Example 56] |
| 29.4 nM | CCOc1ccccc1C(=O)N1CCC(COc2cnc(-c3ccc(Cl)cc3)nc2)(C(=O)O)C1 (single isomer, unassigned) [Example 57] |
| 884 nM | CCOc1ccccc1C(=O)N1CCC(COc2cnc(-c3ccc(Cl)cc3)nc2)(C(=O)O)C1 (single isomer, unassigned) [Example 58] |
| 98.1 nM | COc1ccccc1C(=O)N1CCC(COc2cnc(-c3ccc(Cl)cc3)cn2)(C(=O)O)C1 (single isomer, unassigned) [Example 59] |
| 26.2 nM | COc1ccccc1C(=O)N1CCC(COc2ccc(-c3ccc(C#N)cc3)nc2)(C(=O)O)C1 (single isomer, unassigned) [Example 61] |
